Drawing on US12421253B2 (Mirati Therapeutics, Inc., priority 2020, dated 2025), this text covers IC50 for 13 molecules.

pIC50: −log10 of the molar value.

As usually defined, the pIC50 is −log10 of the IC50, conventionally taken in molar units. A high value points to a small IC50.

The target in one test is KRas^Q61H (Homo sapiens, UniProt P01116, Q61H). The test is described as follows: biochemical.
For the next test, the target named is T1, KRas^G12S (Homo sapiens, UniProt P01116, G12S).
T1 construct: […]; biotin (biotinylated); purchased Accelegan Inc
The test is described as follows: KRas binding assay (TR-FRET displacement of Cy5 labelled tracer). (In general: TR-FRET usually uses a lanthanide donor and a delayed reading to cut background.)

In a further test the target is T2, KRas^WT (Homo sapiens, UniProt P01116).
T2 construct: […]; biotin (biotinylated); purchased Accelegan Inc
Described as above.

For the next test, the target named is T3, KRas^G12A (Homo sapiens, UniProt P01116, G12A).
T3 construct: […]; biotin (biotinylated); purchased Accelegan Inc
Described as above.

Another test deals with T4, KRas^G12D (Homo sapiens, UniProt P01116, G12D).
T4 construct: […]; biotin (biotinylated); purchased Accelegan Inc
Described as above.

In a further test the target is KRas^G12C (Homo sapiens, UniProt P01116, G12C). The test is described as follows: biochemical.
The target in the next test is T5, KRas^G12V (Homo sapiens, UniProt P01116, G12V).
T5 construct: […]; biotin (biotinylated); purchased Accelegan Inc
The test is described as follows: KRas binding assay (TR-FRET displacement of Cy5 labelled tracer).

For a further test, the target named is KRas^G13D (Homo sapiens, UniProt P01116, G13D). The test is described as follows: biochemical.
For another test, the target named is T6, KRas^G12R (Homo sapiens, UniProt P01116, G12R).
T6 construct: […]; biotin (biotinylated); purchased Accelegan Inc
The test is described as follows: KRas binding assay (TR-FRET displacement of Cy5 labelled tracer).

Sequence of KRas^Q61H (P01116 1-169 isoform P01116-2 Q61H): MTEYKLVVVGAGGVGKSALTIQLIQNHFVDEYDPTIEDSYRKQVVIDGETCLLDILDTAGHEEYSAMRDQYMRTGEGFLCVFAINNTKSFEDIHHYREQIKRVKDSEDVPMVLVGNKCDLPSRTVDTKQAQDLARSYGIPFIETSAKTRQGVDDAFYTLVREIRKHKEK
Sequence of KRas^G13D (P01116 1-169 isoform P01116-2 G13D): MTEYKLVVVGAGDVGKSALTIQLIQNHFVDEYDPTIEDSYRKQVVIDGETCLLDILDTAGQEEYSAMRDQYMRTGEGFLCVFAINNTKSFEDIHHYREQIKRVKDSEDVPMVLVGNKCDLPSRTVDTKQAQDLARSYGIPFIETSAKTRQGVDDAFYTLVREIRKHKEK
T1 sequence (P01116 1-169 isoform P01116-2 G12S): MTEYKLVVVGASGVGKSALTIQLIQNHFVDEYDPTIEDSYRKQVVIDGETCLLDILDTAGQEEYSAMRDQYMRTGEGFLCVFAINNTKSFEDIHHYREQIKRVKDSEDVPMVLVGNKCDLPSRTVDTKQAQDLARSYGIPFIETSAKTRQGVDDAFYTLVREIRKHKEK
T6 sequence (P01116 1-169 isoform P01116-2 G12R): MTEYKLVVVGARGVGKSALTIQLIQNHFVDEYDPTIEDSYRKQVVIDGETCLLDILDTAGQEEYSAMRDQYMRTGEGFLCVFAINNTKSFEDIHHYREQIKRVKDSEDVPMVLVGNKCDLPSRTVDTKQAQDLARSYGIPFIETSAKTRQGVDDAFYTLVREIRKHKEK
Sequence of KRas^G12C (P01116 1-169 isoform P01116-2 G12C): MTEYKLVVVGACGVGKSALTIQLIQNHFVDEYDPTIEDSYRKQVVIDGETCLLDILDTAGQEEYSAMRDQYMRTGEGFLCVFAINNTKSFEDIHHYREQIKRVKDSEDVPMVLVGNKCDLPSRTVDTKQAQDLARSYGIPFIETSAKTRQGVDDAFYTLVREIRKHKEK
T4 sequence (P01116 1-169 isoform P01116-2 G12D): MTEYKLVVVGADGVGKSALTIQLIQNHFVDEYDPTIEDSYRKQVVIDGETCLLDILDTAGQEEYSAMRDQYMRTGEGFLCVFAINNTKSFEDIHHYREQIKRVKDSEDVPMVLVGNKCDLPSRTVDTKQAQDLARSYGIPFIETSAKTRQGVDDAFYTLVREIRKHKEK
T3 sequence (P01116 1-169 isoform P01116-2 G12A): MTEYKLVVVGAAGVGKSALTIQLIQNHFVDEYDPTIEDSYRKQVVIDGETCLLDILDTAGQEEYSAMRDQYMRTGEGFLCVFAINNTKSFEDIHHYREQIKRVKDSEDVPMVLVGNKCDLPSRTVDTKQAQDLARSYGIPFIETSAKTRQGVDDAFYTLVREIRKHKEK
T5 sequence (P01116 1-169 isoform P01116-2 G12V): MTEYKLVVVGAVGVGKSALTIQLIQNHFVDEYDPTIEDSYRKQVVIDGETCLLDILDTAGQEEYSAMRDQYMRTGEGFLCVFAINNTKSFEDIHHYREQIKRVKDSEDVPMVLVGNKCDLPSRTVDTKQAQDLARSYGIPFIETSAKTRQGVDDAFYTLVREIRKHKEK
T2 sequence (P01116 1-169 isoform P01116-2): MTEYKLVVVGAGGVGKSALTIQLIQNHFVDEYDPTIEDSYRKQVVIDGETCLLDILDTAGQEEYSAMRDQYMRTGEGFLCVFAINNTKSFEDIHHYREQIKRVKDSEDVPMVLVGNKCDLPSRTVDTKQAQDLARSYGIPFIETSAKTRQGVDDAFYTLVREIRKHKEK
Method for KRas^G12A: (§1) The ability of a compound to bind to KRas was measured using a TR-FRET displacement assay. […] After a 60-minute incubation at room temperature, the reaction was measured using a BMG LABTECH CLARIO star Plus via TR-FRET. […] The POC values were fit to a 4-parameter IC50 equation and the IC50 value reported.
Method for KRas^G12C: as §1
Method for KRas^G12D: as §1
Method for KRas^G12R: as §1
Method for KRas^G12S: as §1
Method for KRas^G12V: as §1
Method for KRas^G13D: as §1
Method for KRas^Q61H: as §1
Method for KRas^WT: as §1

As to `CCc1cccc2cccc(N3CCc4c(nc(OCC56CCCN5CCC6)nc4N4CCC(O)C(CO)C4)C3)c12` (stereo not drawn) [Example 109, 1-(7-(8-ethylnaphthalen-1-yl)-2-((tetrahydro-1H-pyrrolizin-7a(5H)-yl)methoxy)-5,6,7,8-tetrahydropyrido[3,4-d]pyrimidin-4-yl)-3-(hydroxymethyl)piperidin-4-ol], the negative logarithm of the IC50 (pIC50) was 6.05 against KRas^Q61H; 6.21 on KRas^G12S; 6.28 at KRas^WT; 6.13 on KRas^G12A; 5.75 at KRas^G12D; 6.34 against KRas^G12C. Besides, the negative-log IC50 (pIC50) at KRas^G12V is 6.16; against KRas^G13D it was 6.05; on KRas^G12R, 6.41.
Regarding `CCc1cccc2cccc(N3CCc4c(nc(OCC56CCCN5CCC6)nc4N4CCCC(O)(C(F)(F)F)C4)C3)c12` (stereo not drawn) [Example 110, 1-(7-(8-ethylnaphthalen-1-yl)-2-((tetrahydro-1H-pyrrolizin-7a(5H)-yl)methoxy)-5,6,7,8-tetrahydropyrido[3,4-d]pyrimidin-4-yl)-3-(trifluoromethyl)piperidin-3-ol], the pIC50 at KRas^Q61H is 6.31; on KRas^G12S it was 6.26; at KRas^WT it was 6.40; at KRas^G12A it was 6.23; on KRas^G12D, 6.14; at KRas^G12C, 6.19. In addition, the pIC50 was 6.25 at KRas^G12V, 6.39 on KRas^G13D and 6.10 at KRas^G12R.
Regarding `CCc1cccc2cccc(N3CCc4c(nc(OCC56CCCN5CCC6)nc4N4C[C@@H](C)C[C@@H](O)C4)C3)c12` [Example 111, (3R,5S)-1-(7-(8-ethylnaphthalen-1-yl)-2-((tetrahydro-1H-pyrrolizin-7a(5H)-yl)methoxy)-5,6,7,8-tetrahydropyrido[3,4-d]pyrimidin-4-yl)-5-methylpiperidin-3-ol], the pIC50 at KRas^Q61H is 6.29; on KRas^G12S it was 6.31; on KRas^WT, 6.39; at KRas^G12A, 6.36; on KRas^G12D, 6.22; at KRas^G12C it was 6.38. For the same molecule, the pIC50 on KRas^G12V is 6.39; on KRas^G13D, 6.26; at KRas^G12R, 6.26.
With `CCc1cccc2cccc(N3CCc4c(nc(OCC56CCCN5CCC6)nc4N4CCCC(P(C)(C)=O)C4)C3)c12` (stereo not drawn) [Example 112, (1-(7-(8-ethylnaphthalen-1-yl)-2-((tetrahydro-1H-pyrrolizin-7a(5H)-yl)methoxy)-5,6,7,8-tetrahydropyrido[3,4-d]pyrimidin-4-yl)piperidin-3-yl)dimethylphosphine oxide], the negative logarithm of the IC50 (pIC50) is 7.19 against KRas^Q61H; 5.88 on KRas^G12S; 6.39 on KRas^WT; 5.87 on KRas^G12A; 5.14 on KRas^G12D; 5.81 on KRas^G12C. In addition, the negative-log IC50 (pIC50) is 5.80 on KRas^G12V, 6.24 at KRas^G13D and 5.68 at KRas^G12R.
In the case of `CCc1cccc2cccc(N3CCc4c(nc(OCC56CCCN5CCC6)nc4N(C)CC(C)(C)O)C3)c12` [Example 113, 1-((7-(8-ethylnaphthalen-1-yl)-2-((tetrahydro-1H-pyrrolizin-7a(5H)-yl)methoxy)-5,6,7,8-tetrahydropyrido[3,4-d]pyrimidin-4-yl)(methyl)amino)-2-methylpropan-2-ol], the negative-log IC50 (pIC50) against KRas^Q61H was 6.28; on KRas^G12S, 6.22; at KRas^WT, 6.29; at KRas^G12A, 6.33; on KRas^G12D it was 6.07; on KRas^G12C, 6.38. The pIC50 on KRas^G12V is 6.35; on KRas^G13D it was 6.18; at KRas^G12R, 6.12.
`CCc1cccc2cccc(N3CCc4c(nc(OCC56CCCN5CCC6)nc4N4CCCC(c5ccn[nH]5)C4)C3)c12` (stereo not drawn) [Example 115, 4-(3-(1H-pyrazol-5-yl)piperidin-1-yl)-7-(8-ethylnaphthalen-1-yl)-2-((tetrahydro-1H-pyrrolizin-7a(5H)-yl)methoxy)-5,6,7,8-tetrahydropyrido[3,4-d]pyrimidine]: the negative logarithm of the IC50 (pIC50) was 5.92 at KRas^Q61H; 5.87 at KRas^G12S; 5.94 on KRas^WT; 5.96 on KRas^G12A; 5.52 at KRas^G12D; 6.03 against KRas^G12C. The negative-log IC50 (pIC50) at KRas^G12V is 5.74; against KRas^G13D, 5.86; on KRas^G12R, 6.34.
With `CCc1cccc2cccc(N3CCc4c(nc(OCC56CCCN5CCC6)nc4N4CCCC(c5c[nH]cn5)C4)C3)c12` (stereo not drawn) [Example 116, 4-(3-(1H-imidazol-4-yl)piperidin-1-yl)-7-(8-ethylnaphthalen-1-yl)-2-((tetrahydro-1H-pyrrolizin-7a(5H)-yl)methoxy)-5,6,7,8-tetrahydropyrido[3,4-d]pyrimidine], the pIC50 against KRas^Q61H was 5.78; at KRas^G12S it was 5.83; at KRas^WT, 5.68; on KRas^G12A, 5.94; on KRas^G12D, 5.48; against KRas^G12C, 5.95. In addition, the pIC50 at KRas^G12V was 5.75; against KRas^G13D, 5.78; at KRas^G12R, 6.34.
As to `CCc1cccc2cccc(N3CCc4c(nc(OCC56CCCN5CCC6)nc4N4CCCC(c5cn(C)nn5)C4)C3)c12` (stereo not drawn) [Example 118, 7-(8-ethylnaphthalen-1-yl)-4-(3-(1-methyl-1H-1,2,3-triazol-4-yl)piperidin-1-yl)-2-((tetrahydro-1H-pyrrolizin-7a(5H)-yl)methoxy)-5,6,7,8-tetrahydropyrido[3,4-d]pyrimidine], the negative logarithm of the IC50 (pIC50) against KRas^Q61H is 5.83; on KRas^G12S it was 6.04; at KRas^WT it was 5.71; on KRas^G12A, 6.06; at KRas^G12D, 5.75; against KRas^G12C, 6.19. Moreover, the negative-log IC50 (pIC50) at KRas^G12V was 6.02; on KRas^G13D, 5.80; at KRas^G12R, 6.25.
In the case of `CCc1cccc2cccc(N3CCc4c(nc(OCC56CCCN5CCC6)nc4N4CCCCC(C)C4)C3)c12` (stereo not drawn) [Example 119], the pIC50 was 6.11 against KRas^Q61H; 6.10 on KRas^G12S; 6.01 at KRas^WT; 6.19 on KRas^G12A; 5.98 at KRas^G12D; 6.09 on KRas^G12C. In addition, the negative logarithm of the IC50 (pIC50) on KRas^G12V was 6.25; on KRas^G13D, 6.13; on KRas^G12R, 6.08.
Turning to `CCc1cccc2cccc(N3CCc4c(nc(OCC56CCCN5CCC6)nc4N4CCCC(c5nc(C)c(C)[nH]5)C4)C3)c12` (stereo not drawn) [Example 120, 4-(3-(4,5-dimethyl-1H-imidazol-2-yl)piperidin-1-yl)-7-(8-ethylnaphthalen-1-yl)-2-((tetrahydro-1H-pyrrolizin-7a(5H)-yl)methoxy)-5,6,7,8-tetrahydropyrido[3,4-d]pyrimidine], the negative-log IC50 (pIC50) was 5.68 against KRas^Q61H; 5.61 at KRas^G12S; 5.74 on KRas^WT; 5.81 at KRas^G12A; 5.20 on KRas^G12D; 6.24 at KRas^G12C. Further, the pIC50 is 5.38 at KRas^G12V, 5.70 on KRas^G13D and 5.88 on KRas^G12R.
Turning to `CCc1cccc2cccc(N3CCc4c(nc(OCC56CCCN5CCC6)nc4N4CCCC(S(=O)(=O)NC)C4)C3)c12` (stereo not drawn) [Example 125, 1-(7-(8-ethylnaphthalen-1-yl)-2-((tetrahydro-1H-pyrrolizin-7a(5H)-yl)methoxy)-5,6,7,8-tetrahydropyrido[3,4-d]pyrimidin-4-yl)-N-methylpiperidine-3-sulfonamide], the negative logarithm of the IC50 (pIC50) on KRas^Q61H is 5.98; on KRas^G12S it was 6.18; on KRas^WT, 6.19; at KRas^G12A, 5.88; on KRas^G12D, 5.99; against KRas^G12C, 5.92. Moreover, the pIC50 at KRas^G12V was 5.85; at KRas^G13D, 6.14; at KRas^G12R, 5.83.
For `CCc1cccc2cccc(N3CCc4c(nc(OCC56CCCN5CCC6)nc4NC4CC(=O)N(c5cnn(C)c5)C4)C3)c12` (stereo not drawn) [Example 126, 4-((7-(8-ethylnaphthalen-1-yl)-2-((tetrahydro-1H-pyrrolizin-7a(5H)-yl)methoxy)-5,6,7,8-tetrahydropyrido[3,4-d]pyrimidin-4-yl)amino)-1-(1-methyl-1H-pyrazol-4-yl)pyrrolidin-2-one], the negative logarithm of the IC50 (pIC50) is 5.26 on KRas^Q61H; 5.54 on KRas^G12S; 5.37 at KRas^WT; 5.23 at KRas^G12A; 6.14 on KRas^G12D; 5.56 against KRas^G12C. In addition, the negative logarithm of the IC50 (pIC50) on KRas^G12V is 5.56; at KRas^G13D, 5.25; on KRas^G12R, 5.48.
For the molecule `CCc1cccc2cccc(N3CCc4c(nc(OCC56CCCN5CCC6)nc4N(C)Cc4c[nH]nn4)C3)c12` [Example 127, N-((1H-1,2,3-triazol-4-yl)methyl)-7-(8-ethylnaphthalen-1-yl)-N-methyl-2-((tetrahydro-1H-pyrrolizin-7a(5H)-yl)methoxy)-5,6,7,8-tetrahydropyrido[3,4-d]pyrimidin-4-amine], the pIC50 on KRas^Q61H was 5.76; at KRas^G12S it was 5.85; on KRas^WT it was 5.81; at KRas^G12A it was 5.68; at KRas^G12D, 5.69; against KRas^G12C, 5.94. In addition, the negative-log IC50 (pIC50) at KRas^G12V is 6.13; at KRas^G13D, 5.74; at KRas^G12R, 5.87.
